Columns and labels:
[1] = system: Enterobacteriaceae strains; assay: FCM analysis of Ceftazidime-treated strains (DiBAC4(3) marker), fluorescence distribution; format: cell-based; conditions: 128 strains, 1, 2, 4 and 8 mg/L Ceftazidime; inferred from low performance of quantile models
Procedure: In a next step 22, liquid samples with different concentrations {C1, . . . , Cm} of the antibiotic are prepared for each of the selected strains Si, where C1=0 (no antibiotic) and m>2 is the number of non-null concentrations of antibiotic. Said concentrations are stored in the computer unit 14. […] After 2 h growth at 35° C. with shaking at 180 rpm, the resulting exponential phase bacterial culture is normalized at 0.5 McF and used to inoculate wells of a microtiterplate supplemented with antibiotics at the different concentrations {C1, . . . , Cm}. After 1 h of incubation at 35° C., a membrane depolarization fluorescent marker, for example (Bis-(1,3-Dibutylbarbituric Acid)Trimethine Oxonol), also known as “DiBAC4(3)”, is added to the wells at a final concentration of 0.5 μg/ml. An additional 15 min incubation with the marker is at 35° C. is then carried out. […]
In the step 24, a FCM acquisition is performed for each sample by means of the flow-cytometer 12 and the corresponding FSC, SSC and fluorescence distributions stored in the computer unit 14. For each strain Si, and for each concentration C1, a FSC distribution “FSCi,j”, a SSC distribution “SSCi,j” and a fluorescence distribution “FIi,j” are thus stored in the computer unit 14, e.g. in the form of digital vectors. […]

[2] = system: Enterobacteriaceae strains; assay: FCM fluorescence distribution profiles of Gentamicin-treated strains (DiBAC4(3) membrane depolarization marker); format: cell-based
Procedure: In a next step 22, liquid samples with different concentrations {C1, . . . , Cm} of the antibiotic are prepared for each of the selected strains Si, where C1=0 (no antibiotic) and m>2 is the number of non-null concentrations of antibiotic. Said concentrations are stored in the computer unit 14. […] After 2 h growth at 35° C. with shaking at 180 rpm, the resulting exponential phase bacterial culture is normalized at 0.5 McF and used to inoculate wells of a microtiterplate supplemented with antibiotics at the different concentrations {C1, . . . , Cm}. After 1 h of incubation at 35° C., a membrane depolarization fluorescent marker, for example (Bis-(1,3-Dibutylbarbituric Acid)Trimethine Oxonol), also known as “DiBAC4(3)”, is added to the wells at a final concentration of 0.5 μg/ml. An additional 15 min incubation with the marker is at 35° C. is then carried out. The concentrations {C1, . . . , Cm} are chosen such that the range [BPS, BPR] is included or equal to the range [C2, Cm] of non-null concentrations.
In the step 24, a FCM acquisition is performed for each sample by means of the flow-cytometer 12 and the corresponding FSC, SSC and fluorescence distributions stored in the computer unit 14. For each strain Si, and for each concentration C1, a FSC distribution “FSCi,j”, a SSC distribution “SSCi,j” and a fluorescence distribution “FIi,j” are thus stored in the computer unit 14, e.g. in the form of digital vectors.
The experiment was performed as described in the following lines: • A panel of 107 Enterobacteriaceae strains (FIG. 6: Distribution of the panel of strains according to their MICs for Gentamicin) were treated with 0, 2, 4 and 8 mg/L of Gentamicin following the protocol described in FIG. 3 and analyzed by FCM.

CC(C)(O/N=C(\C(=O)N[C@@H]1C(=O)N2C(C(=O)[O-])=C(C[n+]3ccccc3)CS[C@H]12)c1csc(N)n1)C(=O)O [Ceftazidime]
fluorescence distribution of treated strains [1]: the majority of strains treated with Ceftazidime exhibit homogeneous distributions of fluorescence

Gentamicin
fluorescence distribution profile vs untreated samples ([2]; intermediate phenotype strains, 2 mg/L Gentamicin): more strains showed no shift of fluorescence (profile A)
fluorescence distribution profile vs untreated samples ([2]; intermediate phenotype strains, 4 and 8 mg/L Gentamicin): equal number of strains exhibited either no shift (profile A) or heterogeneous fluorescence distribution (profile B)
resistant strains that did not show any shift in fluorescence (profile A) ([2]; resistant phenotype strains, all concentrations tested (2, 4, 8 mg/L)): 36 out of 37
fluorescence distribution profile vs untreated samples ([2]; susceptible phenotype strains, 2 mg/L Gentamicin, panel of 107 strains, approximately evaluated): equal number of strains exhibited either no shift (profile A) or heterogeneous fluorescence distributions (profile B)
fluorescence distribution profile vs untreated samples ([2]; susceptible phenotype strains, 4 and 8 mg/L Gentamicin, panel of 107 strains, approximately evaluated): the majority of strains exhibited an heterogeneous fluorescence distribution (profile B)

Reference: US11649476B2, “Flow cytometry data processing for antimicrobial agent sensibility prediction” (priority 2016, dated 2023)
